Laboratory results reported in PMC10454409, “Hybrids of Sterically Hindered Phenols and Diaryl Ureas: Synthesis, Switch from Antioxidant Activity to ROS Generation and Induction of Apoptosis” (International Journal of Molecular Sciences, 2023).
Read-outs that look alike come from different tables or passages of the source.

Assays:
[1] = tested on: HuTu 80 cells (human duodenal adenocarcinoma); assay: MTT cytotoxicity test, HuTu 80; type: cell-based
Outline: (§1)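 Cells seeded at 5 × 10^3 per well and grown at 37 °C to monolayer, then exposed to compounds for 48 h. Viability by MTT (0.5 mg/mL, serum-free medium, 4 h, 37 °C), formazan dissolved in DMSO, OD 540 nm. IC50 estimated from triplicate experiments.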

[2] = tested on: Chang liver cells (human liver cells, normal cell line); assay: MTT cytotoxicity test, Chang liver normal cells; type: cell-based; settings: 48 h incubation
Text: For the experiments, we used tumor cell cultures M-HeLa clone 11 (epithelioid carcinoma of the cervix, subline HeLa., clone M-HeLa), HuTu 80 (human duodenal adenocarcinoma) and MCF7 (human breast adenocarcinoma (pleural fluid)) from the collection of the Institute of Cytology, Russian Academy of Sciences (St. Petersburg); human liver cells (Chang liver) from the collection of the Research Institute of Virology at the Russian Academy of Medical Sciences (Moscow); and SH-SY5Y (neuroblastoma)from the Laboratory of Tumor Cell Genetics at the Scientific Research Institute of Carcinogenesis N.N. Blokhin National Medical Research Center of Oncology.
The cytotoxic effect on cells was determined using the colorimetric method of cell proliferation—the MTT test. NADP-H-dependent cellular oxidoreductase enzymes can, under certain conditions, reflect the number of viable cells. These enzymes are able to reduce the tetrazolium dye (MTT)-3-(4,5-dimethylthiazol-2-yl)-2,5-diphenyl-tetrazolium bromide to insoluble blue-violet formazan, which crystallizes inside the cell. The amount of formazan formed is proportional to the number of cells with active metabolism.
Cells were seeded on a 96-well Nunc plate at a concentration of 5 × 10^3 cells per well in a volume of 100 μL of medium and cultured in a CO2 incubator at 37 °C until a monolayer was formed. […] After 48 h, the nutrient medium was removed from the plates and 100 µL of the nutrient medium without serum with MTT at a concentration of 0.5 mg/mL was added and incubated for 4 h at 37 °C. Formazan crystals were […] 100 µL of DMSO in each well. Optical density was recorded at 540 nm on an in vitro logic microplate reader (Russia). The experiments for all compounds were repeated in triplicate.
IC50 values were estimated using the Quest Graph IC50 Calculator (AAT Bioquest, Inc., Sunnyvale, CA, USA) (Version 2022) (accessed on 25 June 2022).

[3] = tested on: MCF-7 cells (human breast adenocarcinoma); assay: MTT cytotoxicity test, MCF-7; type: cell-based; settings: Homo sapiens, MCF7, MTT test; 24 h incubation per text, 48 h per method
Outline: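 Viable MCF-7 cells quantified by MTT reduction to formazan, dissolved in DMSO and read at 540 nm. Triplicate experiments.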

[4] = tested on: SH-SY5Y neuroblastoma cells; assay: Glycolysis stress test (Seahorse XF96e, ECAR); type: cell-based; settings: compound 100 µM
Experimental: We studied the ability of compounds to inhibit aerobic glycolysis using the Agilent Seahorse XF96e Analyzer (Seahorse Bioscience, North Billerica, MA, USA) assay of cellular metabolism on the level of proton production in samples examined on the SH-SY5Y neuroblastoma cell line using glycolysis stress tests. The extracellular acidification rate of the medium was measured in real time, which allowed us to assess the intensity of glycolysis in the cells by recording the main parameters of glycolytic function: basal glycolysis, glycolytic capacity and glycolytic reserve. Glycolytic capacity describes the maximum amount of glycolysis/glucose breakdown the cells can perform acutely, whereas glycolytic reserve is defined as the difference between the basal and maximal glycolytic capacity.
The ability of synthesized compounds to modulate […] glycolysis was studied using the Agilent Seahorse XF96e Analyzer (Seahorse Bioscience, Billerica, MA, USA) on the neuroblastoma SH-SY5Y cell line (40,000 cells per well) as described earlier.
Glycolysis was measured by subtracting the maximum rate of extracellular acidification of the medium before glucose injection from the maximum rate before oligomycin injection. Glycolytic capacity was measured by subtracting the maximum velocity value before glucose injection from the maximum velocity value after oligomycin injection. Glycolytic reserve was defined as the difference between glycolytic capacity and glycolysis.
Figure 6 Effect of synthesized compounds on the glycolytic profile of (a–c) SH-SY5Y tumor cells and (d) calculated parameters of glycolytic function. […] The concentration of compounds was 100 µM, glucose—10 mM, oligomycin—1 µM и 2-fluoro-2-deoxy-D-glucose—25 mM. Data are presented as mean±error of the mean (n = 3). Statistical significance was assessed using one-way ANOVA and Dunnett’s multiple comparison tests, where **** p < 0.0001, *** p < 0.001, ** p < 0.01 and * p < 0.05 vs. control.

[5] = tested on: SH-SY5Y cells (neuroblastoma); assay: MTT cytotoxicity test, SH-SY5Y; type: cell-based; settings: Homo sapiens, SH-SY5Y; MTT test; 24 h incubation per text, 48 h per method
Outline: as §1

[6] = tested on: isolated rat liver mitochondria; assay: Membrane potential of isolated mitochondria (Safranin A); type: biochemical; settings: for Depolarization of mitochondrial membrane: isolated mitochondria
Experimental: The membrane potential of rat […] mitochondria was measured with a Victor 3 plate analyzer (Perkin Elmer, Hamburg, Germany) using the potential-dependent indicator Safranin A [57]. The mitochondrial preparation was diluted in a buffer containing mannitol (225 mM) (Dia-M, Moscow, Russia), sucrose (75 mM) (Sigma Aldrich, Saint Louis, MO, USA), HEPES (10 mM) (Gibco, Scotland, UK), EGTA (20 µM) (Dia-M, Moscow, Russia) and KH2PO4 (1 mM) at pH = 7.4 at a ratio of 0.5 mg of protein to 1 mL of medium. Safranin A (5 µM) was added to the suspension immediately before the start of the measurement. The organelles were then energized by potassium succinate (5 mM) in the presence of rotenone (1 µM). Mitochondrial pore opening was induced by the addition of CaCl2 (25 µM).
Figure 8 Effect of the synthesized compounds on the membrane potential of rat liver mitochondria. (a) Kinetic lines of transmembrane potential changes at λex = 458 nm and λem = 590 nm. The concentration of the test substances was 100 µM. (b) Calculated parameters of % depolarization relative to control samples. Statistical significance was assessed using one-way ANOVA and Dunnett’s multiple comparison tests, where **** p < 0.0001 vs. control. (c) Concentration dependence of the effects of 11b and 17b on mitochondrial membrane potential. The concentration of the test substances was from 20 to 200 µM. Concentration of ions; Ca^2+—25 µM. Mitochondria were energized by potassium succinate and rotenone. Data are presented as mean±error of the mean (n = 3).

SMILES: CCOP(=O)(OCC)C(c1cc(C(C)(C)C)c(O)c(C(C)(C)C)c1)c1ccc(NC(=O)Nc2ccc([N+](=O)[O-])cc2)cc1NC(=O)Nc1ccc([N+](=O)[O-])cc1 (centres unmarked) [17b]
- IC50 ([1]; Homo sapiens, HuTu80, read-out: IC50, HuTu 80): < 15 µM
- IC50 ([1]; read-out: IC50, HuTu 80): 13.2 µM
- IC50 [2]: 74 ± 5.9 µM
- IC50 [3]: 51 ± 4.2 µM
- Glycolytic reserve [4]: ability to decrease glycolytic reserves
- Glycolysis: rate of extracellular acidification after saturating glucose ([4]; glucose 10 mM): decrease in the rate of extracellular acidification
- Glycolytic capacity ([4]; oligomycin 1 µM): decrease in glycolytic capacity
- IC50 [5]: 54.8 ± 2.1 µM
- Depolarization of mitochondrial membrane ([6]; compound 100 μM): 50%
- Depolarization of mitochondrial membrane ([6]; compound 200 μM): ~100%
- Depolarization relative to control (class in Figure 8b) ([6]; isolated rat liver mitochondria, compound 100 µM): High Depolarization
